These results are taken from ChEMBL document CHEMBL2406906, “1,2,4-Triazole derivatives as transient inactivators of kallikreins involved in skin diseases” (Bioorg Med Chem Lett, 2013).

The structures appear in SMILES notation. Activity calls are given as the source filed them. No cut-off for these calls is given here.

In data set [1] the target is T1, Kallikrein-14 (Homo sapiens, UniProt Q9P0G3).
T1 sequence (Q9P0G3 whole entry): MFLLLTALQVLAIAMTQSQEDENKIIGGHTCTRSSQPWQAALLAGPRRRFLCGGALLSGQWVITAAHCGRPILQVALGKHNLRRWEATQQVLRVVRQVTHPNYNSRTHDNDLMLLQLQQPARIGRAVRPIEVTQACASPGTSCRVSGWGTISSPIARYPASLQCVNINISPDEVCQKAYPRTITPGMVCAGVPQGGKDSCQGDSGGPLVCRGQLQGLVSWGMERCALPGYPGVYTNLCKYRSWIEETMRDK
Briefly: Inhibition of human kallikrein 14 measured after 15 mins at pH 8 by fluorescence assay.

In data set [2] the target is T2, Suppressor of tumorigenicity 14 protein (Homo sapiens, UniProt Q9Y5Y6).
T2 sequence (Q9Y5Y6 whole entry): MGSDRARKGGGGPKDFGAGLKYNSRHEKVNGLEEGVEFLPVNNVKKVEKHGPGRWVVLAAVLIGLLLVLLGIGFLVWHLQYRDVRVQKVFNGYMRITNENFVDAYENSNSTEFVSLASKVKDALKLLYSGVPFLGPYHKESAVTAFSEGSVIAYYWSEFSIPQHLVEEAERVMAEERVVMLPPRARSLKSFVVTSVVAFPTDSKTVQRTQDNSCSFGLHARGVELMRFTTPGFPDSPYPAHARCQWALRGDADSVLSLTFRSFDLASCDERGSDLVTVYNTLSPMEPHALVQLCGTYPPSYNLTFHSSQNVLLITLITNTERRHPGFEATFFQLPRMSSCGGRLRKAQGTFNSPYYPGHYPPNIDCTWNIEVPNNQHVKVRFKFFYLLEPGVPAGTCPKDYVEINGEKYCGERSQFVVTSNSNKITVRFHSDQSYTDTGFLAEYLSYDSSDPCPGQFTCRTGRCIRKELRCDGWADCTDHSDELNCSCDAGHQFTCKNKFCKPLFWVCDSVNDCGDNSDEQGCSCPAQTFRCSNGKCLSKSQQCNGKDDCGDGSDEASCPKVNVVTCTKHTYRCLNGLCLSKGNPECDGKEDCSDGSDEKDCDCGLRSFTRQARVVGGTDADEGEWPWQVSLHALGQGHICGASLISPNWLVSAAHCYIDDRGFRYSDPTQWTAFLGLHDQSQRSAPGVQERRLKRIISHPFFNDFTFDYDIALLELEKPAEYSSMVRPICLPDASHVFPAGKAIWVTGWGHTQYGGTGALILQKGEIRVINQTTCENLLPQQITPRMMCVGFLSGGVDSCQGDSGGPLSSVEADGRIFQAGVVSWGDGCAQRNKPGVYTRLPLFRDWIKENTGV
Put plainly: Inhibition of human matriptase measured after 15 mins at pH 8 by fluorescence assay.

In data set [3] the target is T3, Kallikrein-7 (Homo sapiens, UniProt P49862). Briefly: Inhibition of human kallikrein 7 measured after 15 mins at pH 8 by fluorescence assay.
Target sequence in this assay (P49862 whole entry): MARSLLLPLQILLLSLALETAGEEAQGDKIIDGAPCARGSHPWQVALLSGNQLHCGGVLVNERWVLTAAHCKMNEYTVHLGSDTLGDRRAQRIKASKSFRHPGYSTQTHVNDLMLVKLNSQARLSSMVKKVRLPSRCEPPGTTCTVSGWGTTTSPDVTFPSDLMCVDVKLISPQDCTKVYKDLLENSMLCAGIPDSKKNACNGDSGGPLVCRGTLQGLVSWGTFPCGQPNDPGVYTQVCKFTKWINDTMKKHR
In data set [4] the target is T4, Kallikrein-5 (Homo sapiens, UniProt Q9Y337).
T4 sequence (Q9Y337 whole entry): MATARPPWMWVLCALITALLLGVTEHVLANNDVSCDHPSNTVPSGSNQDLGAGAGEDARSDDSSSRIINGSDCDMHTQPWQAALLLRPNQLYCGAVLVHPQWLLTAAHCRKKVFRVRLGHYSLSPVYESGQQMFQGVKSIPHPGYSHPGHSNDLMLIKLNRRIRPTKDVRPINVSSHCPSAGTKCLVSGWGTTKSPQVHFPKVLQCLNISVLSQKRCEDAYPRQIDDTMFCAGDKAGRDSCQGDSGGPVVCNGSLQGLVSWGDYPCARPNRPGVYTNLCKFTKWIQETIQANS
Put plainly: Inhibition of human kallikrein 5 measured after 15 mins at pH 8 by fluorescence assay.

The target in data set [5] is T5, Kallikrein-14 (Homo sapiens) (UniProt Q9P0G3).
T5 sequence (whole entry): T1 sequence (Q9P0G3 whole entry)
Put plainly: Binding affinity to human kallikrein 14 assessed as half life of deacylated enzyme.

A short description of data set [6]: Cytotoxicity against human keratinocytes at 1 to 10 uM after 48 hrs by neutral red uptake assay. It counts as cell-based. The conditions noted are these: keratinocyte.
Data set [7] deals with T6, Suppressor of tumorigenicity 14 protein (Homo sapiens) (UniProt Q9Y5Y6).
T6 sequence (whole entry): T2 sequence (Q9Y5Y6 whole entry)
Briefly: Binding affinity to human matriptase assessed as half life of deacylated enzyme.

Data set [8] has as its target T3, Kallikrein-7. Put plainly: Binding affinity to human kallikrein 7 assessed as half life of deacylated enzyme.
Target sequence in this assay (P49862 30-253 limits assumed): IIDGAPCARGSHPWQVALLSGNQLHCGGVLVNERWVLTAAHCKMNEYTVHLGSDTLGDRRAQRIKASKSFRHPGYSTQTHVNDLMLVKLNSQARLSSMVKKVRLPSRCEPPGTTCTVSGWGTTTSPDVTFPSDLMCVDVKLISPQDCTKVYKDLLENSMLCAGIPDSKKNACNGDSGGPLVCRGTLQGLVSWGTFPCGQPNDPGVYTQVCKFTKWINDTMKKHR
In data set [9] the target is T3, Kallikrein-7. Put plainly: Binding affinity to human kallikrein 7 assessed as deacylation of enzyme relative to control.
Target sequence in this assay (P49862 30-253 limits assumed): as above
Data set [10] has as its target Kallikrein-5 (Homo sapiens) (UniProt Q9Y337). Put plainly: Binding affinity to human kallikrein 5 assessed as deacylation of enzyme relative to control.
Data set [11] shares this target. Briefly: Inhibition of human kallikrein 5 at 296 nM to 1 uM at pH 8 by fluorescence assay. The conditions noted are these: TDE = time-dependent effect.
Data set [12] has the same target. Put plainly: Transient inhibition of human kallikrein 5 assessed as spontaneous reactivation up to 6 hrs.
Data set [13] deals with T3, Kallikrein-7. The conditions noted are these: 296 nM.
Target sequence in this assay (P49862 30-253 limits assumed): as above
Description: Inhibition of human kallikrein 7 at 296 nM to 1 uM at pH 8 by fluorescence assay
Data set [14] deals with T4, Kallikrein-5. Put plainly: Inhibition of human kallikrein 5 measured after 15 mins at pH 8 by double-reciprocal plot analysis.
Data set [15] has as its target Kallikrein-5 (Homo sapiens) (UniProt Q9Y337). Briefly: Inhibition of human kallikrein 5 at 0.5 to 8 uM at pH 8 by fluorescence assay. The following applies: TDE = time-dependent effect.
For data set [16], the target named is T3, Kallikrein-7. Briefly: Inhibition of human kallikrein 7 at 0.5 to 8 uM at pH 8 by fluorescence assay. The following applies: TDE = time-dependent effect.
Target sequence in this assay (P49862 30-253 limits assumed): as above

Take `C/C(=C\c1ccccc1)C(=O)n1nnc2ccccc21`: the 50% inhibitory concentration (IC50) entry in [1], in data set [2], in data set [3] and in [4] was “Not Active” each time.
Consider `COc1ccc(C(=O)n2cnnc2N)cc1`, for which the concentration for half-maximal inhibition (IC50) in [1] (read-out: IC50) is 3430 nM; in data set [2] (read-out: IC50) it was over 30000 nM; in data set [3] (read-out: IC50) it was 610 nM; in data set [4] (read-out: IC50), 990 nM. Also, the T1/2 in [5] worked out at 5 min. The Activity result in data set [6] was “Non-toxic”.
`CSc1nc(-c2ccc(Cl)cc2)nn1C(=O)c1ccccc1`: the IC50 in data set [1] (read-out: IC50) turned out to be 970 nM; in data set [2] (read-out: IC50), 420 nM; in data set [3] (read-out: IC50), 660 nM; in [4] (read-out: IC50) it was 140 nM. Further, the T1/2 amounted to 5 min in data set [5], 5 min in [7] and 39 min in [8]. Besides, the Activity result in data set [6] is recorded as “Non-toxic”. Also, the fold change (FC) in [9] turned out to be 0.2.
For `Nc1nc(-c2cccnc2)nn1C(=O)c1ccc(Cl)cc1`, the IC50 is over 30000 nM in data set [1] (read-out: IC50), over 30000 nM in [2] (read-out: IC50), 220 nM in data set [3] (read-out: IC50) and 1140 nM in data set [4] (read-out: IC50). Also, the fold change (FC) in data set [10] is 8; in [9], 2.
On to `Cc1ccc(C(=O)n2nc(-c3cccnc3)nc2N)cc1`, for which the IC50 in data set [1] (read-out: IC50) turned out to be 1290 nM; in data set [2] (read-out: IC50), 570 nM; in [3] (read-out: IC50), 40 nM; in [4] (read-out: IC50), 270 nM. Also, the T1/2 in data set [5] and in data set [7] was 5 min throughout. Also, the inhibition result in data set [11] and in [13] was “tde” throughout. The inhibition entry in [12] is “Active”. Besides, the Activity entry in data set [6] is “Non-toxic”. Also, the Ki in [14] stood at 4400 nM.
For `COc1ccc(C(=O)n2nc(-c3ccccc3)nc2N)cc1OC`, the concentration for half-maximal inhibition (IC50) in [1] (read-out: IC50) is over 30000 nM; in data set [2] (read-out: IC50), over 30000 nM; in [3] (read-out: IC50), 230 nM; in [4] (read-out: IC50) it was 1300 nM. The inhibition result in data set [15] and in [16] was “tde” throughout. The fold change (FC) in data set [10] worked out at 4; in data set [9] it was 0.2.
Consider `Nc1nc(-c2cccnc2)nn1C(=O)c1ccc(Cl)cc1Cl`, for which the half-inhibitory concentration (IC50) result in data set [1] is “Not Active”; in data set [2] it was “Not Active”; in [3] (read-out: IC50) it was 3500 nM; in data set [4] (read-out: IC50), over 30000 nM.
